{
  "source": "patent US9511057B2",
  "about": "“Methods for treating denervation-induced muscle atrophy” (THE BOARD OF TRUSTEES OF THE LELAND STANFORD JUNIOR …, priority 2013, dated 2016)",
  "assay": "Body weight and innervated muscle weight under rapamycin treatment (Table 2)",
  "assay_type": "in vivo, mouse",
  "design": "key to Body weight before / Body weight after: body weight in g; Gastroc weight, innervated muscle: unit not given here",
  "details": "for Gastroc weight, innervated muscle / TA weight, innervated muscle / sol (soleus) weight, innervated muscle / Body weight after / Body weight before: individual mice; for TA weight, innervated muscle, MEAN / sol (soleus) weight, innervated muscle, MEAN / Body weight after, MEAN / Body weight before, MEAN: mean of 6 mice; for Body weight after, MEAN / Body weight before, MEAN: in g",
  "experimental": "Rapamycin (LC Laboratories; Woburn, Mass.) was initially dissolved in 100% ethanol, stored at −20° C., and further diluted in an aqueous solution of 5.2% Tween 80 and 5.2% PEG 400 (final ethanol concentration, 2%) immediately before use (Wendel et al., 2004). Denervated NSA mice (male, 40 g) were injected immediately with rapamycin i.p. at 1.5 mg/kg, or 6 mg/kg body weight, every other day. Control mice were injected with vehicle with the same amount of ethanol solvent with rapamycin group (6 mg·kg). Muscle samples were collected 15 days later. Muscle wet weight was recorded immediately. For immunostaining, muscles were frozen in OCT in dry ice-cold isopentane. For RNA and protein extraction, muscles were quickly frozen in liquid nitrogen. Student t-test was used to evaluate the statistical significance. P<0.05 was considered as statistically significant. Each of these experiments were performed such that there were 3 to 6 separate experimental mice (for each genotype, dose, and time-point) and 3-6 separate control mice per experiment.",
  "key": {"[1]": {"details": "Inn + 1.5 (rapamycin 1.5 mg/kg i.p. every other day, 15 days), in g (unit assumed)"}, "[2]": {"details": "Inn + 1.5 (rapamycin 1.5 mg/kg), in g (unit assumed)"}, "[3]": {"details": "Inn + 6 (rapamycin 6 mg/kg i.p. every other day, 15 days)"}, "[4]": {"details": "Inn + 6 (rapamycin 6 mg/kg), in g (unit assumed)"}, "[5]": {"details": "rapamycin at the doses used (1.5 or 6 mg/kg i.p. every other day)"}},
  "note": "“And” between values parts separate entries of the source, which are not always exact repeats. Equal values may be shown once.",
  "data": [
    {"smiles": "CO[C@H]1C[C@@H]2CC[C@@H](C)[C@@](O)(O2)C(=O)C(=O)N2CCCC[C@H]2C(=O)O[C@H]([C@H](C)C[C@@H]2CC[C@@H](O)[C@H](OC)C2)CC(=O)[C@H](C)/C=C(\\C)[C@@H](O)[C@@H](OC)C(=O)[C@H](C)C[C@H](C)/C=C/C=C/C=C/1C", "note": "[rapamycin, Rapamycin]", "values": [
      {"measurement": "Gastroc weight, innervated muscle", "setting": "Inn + 1.5 (rapamycin 1.5 mg/kg i.p. every other day, 15 days)", "value": "0.1984 and 0.2043 and 0.2062 and 167.3 and 196.7"},
      {"measurement": "TA weight, innervated muscle", "setting": "[1]", "value": "0.0719 and 0.0697 and 0.068 and 0.0898 and 0.0795 and 0.0597"},
      {"measurement": "sol (soleus) weight, innervated muscle", "setting": "[1]", "value": "0.0114 and 0.0095 and 0.0099 and 0.0106 and 0.0102 and 0.0075"},
      {"measurement": "TA weight, innervated muscle, MEAN", "setting": "[2]", "value": 0.0731},
      {"measurement": "sol (soleus) weight, innervated muscle, MEAN", "setting": "[2]", "value": 0.00985},
      {"measurement": "Gastroc weight, innervated muscle", "setting": "[3]", "value": "0.2084 and 0.2168 and 0.1798 and 217.7 and 230.5"},
      {"measurement": "sol (soleus) weight, innervated muscle", "setting": "[3]", "value": "0.0102 and 0.0116 and 0.0106 (3×) and 0.0115"},
      {"measurement": "TA weight, innervated muscle", "setting": "Inn + 6 (rapamycin 6 mg/kg i.p. every other day, 15 days), in g (unit assumed)", "value": "0.0686 and 0.0751 and 0.0645 and 0.078 and 0.0713 and 0.0759"},
      {"measurement": "TA weight, innervated muscle, MEAN", "setting": "[4]", "value": 0.07223},
      {"measurement": "sol (soleus) weight, innervated muscle, MEAN", "setting": "[4]", "value": 0.01085},
      {"measurement": "Body weight after", "setting": "Rapa − 1.5, after", "value": "45 and 46 and 42 (2×) and 40 and 39"},
      {"measurement": "Body weight after, MEAN", "setting": "Rapa − 1.5, after", "value": 42.33},
      {"measurement": "Body weight before", "setting": "Rapa − 1.5, before", "value": "41 g (2×) and 46 g and 44 g and 42 g (2×)"},
      {"measurement": "Body weight before, MEAN", "setting": "Rapa − 1.5, before", "value": 42.67},
      {"measurement": "Body weight after", "setting": "Rapa − 6, after, in g (unit assumed)", "value": "46 and 38 and 41 and 42 and 40 and 39"},
      {"measurement": "Body weight after, MEAN", "setting": "Rapa − 6, after", "value": 41},
      {"measurement": "Body weight before", "setting": "Rapa − 6, before, in g (unit assumed)", "value": "39 and 42 and 55 and 43 and 41 and 44"},
      {"measurement": "Body weight before, MEAN", "setting": "Rapa − 6, before", "value": 44},
      {"measurement": "influence on body weight", "setting": "[5]", "value": "did not influence"},
      {"measurement": "influence on innervated muscle weight", "setting": "[5]", "value": "does not change"},
      {"measurement": "influence on innervated muscle weight", "setting": "rapamycin at the doses used (1.5 or 6 mg/kg i.p. every other day), listed as Rapamycin", "value": "did not influence"}
    ]}
  ]
}
